{"source": "patent US20180362449A1", "about": "“THE EXOCYST AS A NOVEL DRUG TARGET OF ENDOSIDIN2 AND APPLICATION AS A THERAPEUTIC” (The Regents of the University of California, priority 2015, published 2018)", "key": {"PIN2 localization": {"tested_on": "PIN2 localization", "assay": "PIN2 localization in root cells of PIN2::PIN2:GFP seedlings", "conditions": "for induction of PIN2 agglomerations / PIN2 localization: 40 μM, 2 hours"}, "EXO70A1": {"target": "T1, EXO70A1 (Arabidopsis thaliana, UniProt Q9LZD3)", "T1 construct": "protein extracts from 16 days old seedlings grown from normal 0.5×MS agar media; from tissue; host or cells: Arabidopsis seedlings (16 days old), 16,000×g supernatant", "T1 sequence (Q9LZD3 1-638)": "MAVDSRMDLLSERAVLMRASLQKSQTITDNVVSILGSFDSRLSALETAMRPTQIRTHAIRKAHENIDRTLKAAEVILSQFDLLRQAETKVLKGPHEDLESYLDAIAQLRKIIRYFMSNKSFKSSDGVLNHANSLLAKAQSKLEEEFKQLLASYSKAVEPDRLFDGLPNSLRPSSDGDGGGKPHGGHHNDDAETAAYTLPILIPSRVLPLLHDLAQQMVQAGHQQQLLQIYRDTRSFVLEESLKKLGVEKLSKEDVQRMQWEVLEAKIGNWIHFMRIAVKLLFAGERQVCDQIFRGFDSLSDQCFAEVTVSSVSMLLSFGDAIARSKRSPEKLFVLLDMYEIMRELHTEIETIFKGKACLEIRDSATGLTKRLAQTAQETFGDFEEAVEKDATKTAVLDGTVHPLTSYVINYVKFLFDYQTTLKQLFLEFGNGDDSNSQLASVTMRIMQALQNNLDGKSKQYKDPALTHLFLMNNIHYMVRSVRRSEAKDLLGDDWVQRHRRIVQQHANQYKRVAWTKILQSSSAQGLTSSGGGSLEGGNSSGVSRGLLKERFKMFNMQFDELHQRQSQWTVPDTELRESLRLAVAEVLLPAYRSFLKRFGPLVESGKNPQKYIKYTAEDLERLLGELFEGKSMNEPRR", "format": "binding", "conditions": "in comparison to Bio-680 matrix and biotin controls"}, "[1]": {"target": "T2, EXO70A1 (amino acid residues 75-638) (Arabidopsis thaliana, UniProt Q9LZD3)", "T2 sequence (Q9LZD3 75-638)": "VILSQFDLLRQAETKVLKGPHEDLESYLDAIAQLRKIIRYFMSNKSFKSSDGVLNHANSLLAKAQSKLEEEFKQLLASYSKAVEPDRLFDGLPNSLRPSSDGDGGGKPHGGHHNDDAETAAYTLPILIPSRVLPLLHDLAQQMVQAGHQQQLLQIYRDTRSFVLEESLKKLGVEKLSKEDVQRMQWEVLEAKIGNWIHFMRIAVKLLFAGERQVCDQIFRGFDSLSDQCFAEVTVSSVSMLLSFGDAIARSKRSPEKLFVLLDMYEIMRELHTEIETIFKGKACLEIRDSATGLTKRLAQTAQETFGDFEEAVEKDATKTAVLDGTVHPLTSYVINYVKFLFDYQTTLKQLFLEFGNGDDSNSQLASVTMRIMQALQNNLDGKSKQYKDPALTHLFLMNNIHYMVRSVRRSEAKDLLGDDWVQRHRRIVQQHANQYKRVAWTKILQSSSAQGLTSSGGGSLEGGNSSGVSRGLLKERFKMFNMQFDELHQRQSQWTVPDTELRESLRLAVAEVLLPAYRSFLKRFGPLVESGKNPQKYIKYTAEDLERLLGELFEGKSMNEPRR", "assay": "STD-NMR of ES2 / analog8 with purified EXO70A1", "format": "binding", "conditions": "EXO70A1, non-linear fit, read-out: Kd (mean ± SE)"}, "[2]": {"assay": "Stability of ES2 in water by 1H NMR", "format": "physicochemical", "conditions": "1H NMR over one week", "description": "The ES2 molecule contains an N-acyl hydrazone group at its core, and could have the propensity for hydrolysis to 3-fluorobenzohydrazide and 4-hydroxy-3-iodo-5-methoxybenzaldehyde in aqueous solution (FIG. 10A). […] In addition, the activity of the two possible ES2 hydrolysis products in inducing PIN2 localization in late endosomal compartments was tested."}}, "note": "“Also recorded” adds a separate entry of the source."}
{"smiles": "COc1cc(/C=N/NC(=O)c2ccc(N)cc2)ccc1O", "note": "[Ana-680, 4-Amino-N′-[(E)-(4-hydroxy-3-methoxyphenyl)methylidene]benzohydrazide]", "values": [{"measurement": "induction of PIN2 agglomerations / PIN2 localization", "setting": "PIN2 localization", "result": "did not"}]}
{"smiles": "COc1cc(/C=N/NC(=O)c2ccc(N)c(F)c2)cc(I)c1O", "note": "[Ana-688, 4-Amino-3-fluoro-N′-[(E)-(4-hydroxy-3-iodo-5-methoxyphenyl)methylidene]benzohydrazide]", "values": [{"measurement": "induction of PIN2 agglomerations / PIN2 localization", "setting": "PIN2 localization", "result": "induced PIN2 agglomerations"}]}
{"smiles": "COc1cc(/C=N/NC(=O)c2ccc(NC(=O)CCCC[C@@H]3SC[C@@H]4NC(=O)N[C@@H]43)cc2)ccc1O", "note": "[Bio-680, N-(4-((E)-2-(4-hydroxy-3-methoxybenzylidene)hydrazinecarbonyl)phenyl)-5-((3aS,4S,6aR)-2-oxohexahydro-1H-thieno[3,4-d]imidazol-4-yl)pentanamide]", "values": [{"measurement": "induction of PIN2 agglomerations / PIN2 localization", "setting": "PIN2 localization", "result": "inactive; also recorded: did not"}]}
{"smiles": "COc1cc(/C=N/NC(=O)c2ccc(NC(=O)CCCC[C@@H]3SC[C@@H]4NC(=O)N[C@@H]43)c(F)c2)cc(I)c1O", "note": "[Bio-688, N-(2-fluoro-4-((E)-2-(4-hydroxy-3-iodo-5-methoxybenzylidene)hydrazinecarbonyl)phenyl)-5-((3aS,4S,6aR)-2-oxohexahydro-1H-thieno[3,4-d]imidazol-4-yl)pentanamide]", "values": [{"measurement": "pull down of EXO70A1 (western blot band intensity)", "setting": "EXO70A1", "result": "more potent in pulling down EXO70A1"}, {"measurement": "induction of PIN2 agglomerations / PIN2 localization", "setting": "PIN2 localization", "result": "active; also recorded: induced PIN2 agglomerations"}]}
{"smiles": "COc1cc(/C=N/NC(=O)c2cccc(F)c2)cc(I)c1O", "note": "[ES2]", "values": [{"measurement": "Kd", "setting": "[1]", "result": "400 ± 170", "unit": "µM"}, {"measurement": "stability in water solution (hydrolysis)", "setting": "[2]", "result": "no hydrolysis products were observed"}, {"measurement": "maximum feret diameter of PIN2-localized compartments", "setting": "PIN2 localization; 40 μM ES2, 2 hours, light", "result": 2.9, "unit": "μm"}, {"measurement": "minimal feret diameter of PIN2-localized compartments", "setting": "PIN2 localization; 40 μM ES2, 2 hours, light", "result": 0.4, "unit": "μm"}, {"measurement": "feret diameter of PIN2-localized compartments (mean±SD)", "setting": "PIN2 localization; 40 μM ES2, 2 hours, light, N=391", "result": "1.18±0.47", "unit": "μm"}]}
